Results from patent publication US20240360126A1, “PYRAZOLO[3,4-B]PYRIDINE COMPOUNDS FOR THE TREATMENT OF AUTOIMMUNE DISEASE” (Hoffmann-La Roche Inc., priority 2021, published 2024).

Molecular target: T1, TLR9 (Homo sapiens, UniProt Q9NR96)
T1 sequence (Q9NR96 26-1032): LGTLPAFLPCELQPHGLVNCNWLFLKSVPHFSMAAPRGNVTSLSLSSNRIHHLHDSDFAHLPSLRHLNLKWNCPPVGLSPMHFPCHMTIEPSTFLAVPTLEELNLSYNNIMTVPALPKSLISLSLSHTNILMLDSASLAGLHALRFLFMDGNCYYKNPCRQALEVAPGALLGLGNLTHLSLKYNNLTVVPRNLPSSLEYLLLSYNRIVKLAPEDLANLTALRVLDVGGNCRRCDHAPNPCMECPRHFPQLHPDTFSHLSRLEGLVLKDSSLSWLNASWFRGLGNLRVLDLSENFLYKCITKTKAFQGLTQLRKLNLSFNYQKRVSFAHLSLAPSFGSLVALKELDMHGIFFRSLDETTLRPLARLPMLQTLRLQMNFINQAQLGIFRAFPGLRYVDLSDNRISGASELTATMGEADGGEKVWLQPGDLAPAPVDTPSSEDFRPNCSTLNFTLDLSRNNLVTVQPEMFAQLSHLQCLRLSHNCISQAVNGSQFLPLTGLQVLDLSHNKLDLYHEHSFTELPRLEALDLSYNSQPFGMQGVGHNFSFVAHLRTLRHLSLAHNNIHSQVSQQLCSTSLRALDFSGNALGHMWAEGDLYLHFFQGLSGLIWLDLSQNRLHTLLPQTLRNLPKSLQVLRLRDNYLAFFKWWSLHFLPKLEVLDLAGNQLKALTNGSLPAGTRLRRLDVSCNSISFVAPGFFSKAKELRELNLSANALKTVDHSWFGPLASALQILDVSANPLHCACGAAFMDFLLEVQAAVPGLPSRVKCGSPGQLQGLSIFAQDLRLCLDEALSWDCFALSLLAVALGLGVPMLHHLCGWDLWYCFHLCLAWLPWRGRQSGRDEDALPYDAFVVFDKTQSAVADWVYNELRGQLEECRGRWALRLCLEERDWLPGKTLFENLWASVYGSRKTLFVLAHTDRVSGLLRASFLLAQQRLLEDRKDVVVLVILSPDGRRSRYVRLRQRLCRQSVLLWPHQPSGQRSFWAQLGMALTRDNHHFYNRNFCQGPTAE
Assay: HEK293-Blue-hTLR-9 cells assay
Type: cell-based
Parameters: host or cells: HEK293 (HEK-Blue hTLR9)
Conditions: HEK293-Blue-hTLR9 cells, ODN2006 stimulation, 20 hrs; read-out: HEK/hTLR9 IC50
Source text: A stable HEK293-Blue-hTLR-9 cell line was purchased from InvivoGen (Cat. #: hkb-htlr9, San Diego, California, USA). These cells were originally designed for studying the stimulation of human TLR9 by monitoring the activation of NF-κB. A SEAP (secreted embryonic alkaline phosphatase) reporter gene was placed under the control of the IFN-β minimal promoter fused to five NF-κB and AP-1-binding sites. The SEAP was induced by activating NF-κB and AP-1 via stimulating HEK-Blue hTLR9 cells with TLR9 ligands. Therefore the reporter expression was declined by TLR9 antagonist under the stimulation of a ligand, such as ODN2006 (Cat. #: tlrl-2006-1, Invivogen, San Diego, California, USA), for incubation of 20 hrs. The cell culture supernatant SEAP reporter activity was determined using QiANTI-Blue™ kit (Cat. #: rep-qbl, Invivogen, San Diego, California, USA) at a wavelength of 640 nm, a detection medium that turns purple or blue in the presence of alkaline phosphatase.
HEK293-Blue-hTLR9 cells were incubated at a density of 250,000-450,000 cells/mL in a volume of 170 μL in a 96-well plate in Dulbecco's Modified Eagle's medium (DMEM) containing 4.5 g/L glucose, 50 U/mL penicillin, […], […], 10% (v/v) heat-inactivated fetal bovine serum with addition of 20 μL test compound in a serial dilution in the presence of final DMSO at 1% and 10 μL of 20 μM ODN2006 in above DMEM, perform incubation under 37° C. in a C02 incubator for 20 hrs. Then 20 μL of the supernatant from each well was incubated with 180 μl. Quanti-blue substrate solution at 37° C. for 2 h and the absorbance was read at 620˜655 nm using a spectrophotometer. The signaling pathway that TLR9 activation leads to downstream NF-κB activation has been widely accepted, and therefore similar reporter assay was modified for evaluating TLR9 antagonist.

| SMILES | IC50 |
| --- | --- |
| COc1cc(N2CCNCC2)cnc1C1CCN(c2cc(C)nc3c2cnn3C)CC1 [Example 14, 4-[4-(3-methoxy-5-piperazin-1-yl-2-pyridyl)-1-piperidyl]-1,6-dimethyl-pyrazolo[3,4-b]pyridine] | 225 nM |
| Cc1cc(N2CC[C@H](c3ccc(N4CC[C@@H](N)[C@H](F)C4)cn3)[C@@H](C)C2)c2cnn(C)c2n1 [Example 41, (3R,4R)-1-[6-[(3R,4S)-1-(1,6-dimethylpyrazolo[3,4-b]pyridin-4-yl)-3-methyl-4-piperidyl]-3-pyridyl]-3-fluoro-piperidin-4-amine] | 231 nM |
| Cc1cc(N2CC[C@@H](c3ncc(N4CC5(CNCCO5)C4)cc3C)[C@H](C)C2)c2cnn(C)c2n1 [Example 27, 2-[6-[(3S,4R)-1-(1,6-dimethylpyrazolo[3,4-b]pyridin-4-yl)-3-methyl-4-piperidyl]-5-methyl-3-pyridyl]-5-oxa-2,8-diazaspiro[3.5]nonane] | 184 nM |
| Cc1cc(N2CC[C@@H](c3ccc(N4CCNCC4)cn3)[C@H](C)C2)c2cnn(C)c2n1 [Example 34, 1,6-dimethyl-4-[(3S,4R)-3-methyl-4-(5-piperazin-1-yl-2-pyridyl)-1-piperidyl]pyrazolo[3,4-b]pyridine] | 165 nM |
| Cc1cc(N2CC[C@@H](c3ncc(N4C[C@H]5NCCO[C@@H]5C4)cc3C)[C@H](C)C2)c2cnn(C)c2n1 [Example 33, (4aR,7aR)-6-[6-[(3S,4R)-1-(1,6-dimethylpyrazolo[3,4-b]pyridin-4-yl)-3-methyl-4-piperidyl]-5-methyl-3-pyridyl]-3,4,4a,5,7,7a-hexahydro-2H-pyrrolo[3,4-b][1,4]oxazine] | 79 nM |
| Cc1cc(N2CCC(c3cnc(N4CCNCC4)cc3C)CC2)c2cnn(C)c2n1 [Example 8, 1,6-dimethyl-4-[4-(4-methyl-6-piperazin-1-yl-3-pyridyl)-1-piperidyl]pyrazolo[3,4-b]pyridine] | 195 nM |
| Cc1cc(N2CCC(c3ccc(N4CCNCC4)nc3C)CC2)c2cnn(C)c2n1 [Example 10, 1,6-dimethyl-4-[4-(2-methyl-6-piperazin-1-yl-3-pyridyl)-1-piperidyl]pyrazolo[3,4-b]pyridine] | 212 nM |
| CCc1cc(N2CCNCC2)cnc1C1CCN(c2cc(C)nc3c2cnn3C)CC1 [Example 13, 4-[4-(3-ethyl-5-piperazin-1-yl-2-pyridyl)-1-piperidyl]-1,6-dimethyl-pyrazolo[3,4-b]pyridine] | 168 nM |
| COC[C@H]1CN(c2cnc([C@@H]3CCN(c4cc(C)nc5c4cnn5C)C[C@H]3C)c(C)c2)CCN1 [Example 29, 4-[(3S,4R)-4-[5-[(3R)-3-(methoxymethyl)piperazin-1-yl]-3-methyl-2-pyridyl]-3-methyl-1-piperidyl]-1,6-dimethyl-pyrazolo[3,4-b]pyridine] | 238 nM |
| COC[C@H]1CN(c2cnc(C3CCN(c4cc(C)nc5c4cnn5C)CC3)c(C)c2)CCN1 [Example 16, 4-[4-[5-[(3R)-3-(methoxymethyl)piperazin-1-yl]-3-methyl-2-pyridyl]-1-piperidyl]-1,6-dimethyl-pyrazolo[3,4-b]pyridine] | 143 nM |
| Cc1cc(N2CCC(c3ncc(N4CC[C@@H](N)[C@@H](F)C4)cc3C)CC2)c2cnn(C)c2n1 [Example 15, (3S,4R)-1-[6-[1-(1,6-dimethylpyrazolo[3,4-b]pyridin-4-yl)-4-piperidyl]-5-methyl-3-pyridyl]-3-fluoro-piperidin-4-amine] | 130 nM |
| Cc1cc(N2CCC(c3cnc(N4CCNCC4)cc3C)[C@H](C)C2)c2cnn(C)c2n1 (single isomer, unassigned) [Example 21, 1,6-dimethyl-4-[trans-3-methyl-4-(4-methyl-6-piperazin-1-yl-3-pyridyl)-1-piperidyl]pyrazolo[3,4-b]pyridine] | 372 nM |
| Cc1cc(N2CCC(c3ncc(N4CCNCC4)cc3C)CC2)c2cnn(C)c2n1 [Example 7, 1,6-dimethyl-4-[4-(3-methyl-5-piperazin-1-yl-2-pyridyl)-1-piperidyl]pyrazolo[3,4-b]pyridine] | 52 nM |
| Cc1cc(N2CC[C@@H](c3ncc(N4CC(C)(N)C4)cc3C)[C@H](C)C2)c2cnn(C)c2n1 [Example 32, 1-[6-[(3S,4R)-1-(1,6-dimethylpyrazolo[3,4-b]pyridin-4-yl)-3-methyl-4-piperidyl]-5-methyl-3-pyridyl]-3-methyl-azetidin-3-amine] | 186 nM |
